Assay results reported in patent US7064124B2, “NF-κB inhibitor containing substituted benzoic acid derivative as active ingredient” (Daiichi Suntory Pharma Co., Ltd., priority 2001, dated 2006).
Where a name gives a salt, the structure may show the parent alone.

These compounds were tested on NF-κB (assay: NF-κB luciferase reporter assay in A549/NF-κBLuc cells stimulated with IL-1β). Settings: A549/NF-κBLuc cells; compound added 1 hour before IL-1β, then 3 hours incubation; luciferase activity; read-out: NF-κB Inhibitory Activity (IC50).
Type: cell-based, human
Protocol: Effect on Human Lung Cancer-Derived Cell A549 (A549/NF-κBluc) Containing Stably Introduced Luciferase Plasmid (pNFκB-Luc, Stratagene. U.S.A.) Regulated by NF-κB Binding Sequence
Using Lipofectamine (Lifetech Oriental, Tokyo), pNFκB-Luc and pSV2neo (Clontech, U.S.A.) were co-transfected into the A549 cell (ATCC CCL185) and G418 sulfate (1 mg/ml, Lifetech Oriental) was added to the culture medium to select cells containing stably introduced pNFκB-Luc A549/NF-κBLuc.
The compound obtained in Examples each was added to A549/NF-κBLuc and one hour after that, IL-1β capable of activating NF-κB was added. The incubation was further continued for 3 hours.
NF-κB Inhibitory Activity (IC50) of Substituted Benzoic Acid Derivitives: […]

IC50 [µM] | Structure (SMILES)
46 | COC1=C(OC)C(=O)C(Cc2ccc(OCc3cccnc3)c(C(=O)N3CCCCC3)c2)=C(C)C1=O [Example 92 (HCl)]
51 | COC1=C(OC)C(=O)C(Cc2ccc(OCc3ccncc3)c(C(=O)N3CCCCC3)c2)=C(C)C1=O [Example 95 (pTsOH)]

Same assay, conditions: Homo sapiens, A549, A549/NF-κBLuc cells; compound added 1 hour before IL-1β, then 3 hours incubation; luciferase activity; read-out: NF-κB Inhibitory Activity (IC50)

IC50 [µM] | Structure (SMILES)
29 | COC1=C(OC)C(=O)C(Cc2ccc(C(=O)N3CCCCC3)c(OCc3ccccc3)c2)=C(C)C1=O [Example 57, N-[4-(5,6-Dimethoxy-3-methyl-1,4-benzoquinon-2-yl)methyl-2-benzyloxybenzoyl]piperidine]
19 | COC1=C(OC)C(=O)C(Cc2cccc(OCc3ccccc3)c2C(=O)Nc2ccc(OC)cc2)=C(C)C1=O [Example 60, N-[6-(5,6-Dimethoxy-3-methyl-1,4-benzoquinon-2-yl)methyl-2-benzyloxybenzoyl]-4-methoxyaniline]
31 | COC1=C(OC)C(=O)C(Cc2ccc(OCc3ccccc3)c(C(=O)N3CCCCC3)c2)=C(C)C1=O [Example 61, N-[5-(5,6-Dimethoxy-3-methyl-1,4-benzoquinon-2-yl)methyl-2-benzyloxybenzoyl]piperidine]
33 | COC1=C(OC)C(=O)C(Cc2cccc(C(=O)N3CCCCC3)c2OCc2ccccc2)=C(C)C1=O [Example 64, N-[3-(5,6-Dimethoxy-3-methyl-1,4-benzoquinon-2-yl)methyl-2-benzyloxybenzoyl]piperidine]
37 | COC1=C(OC)C(=O)C(Cc2cccc(C(=O)N3CCOCC3)c2OCc2ccccc2)=C(C)C1=O [Example 65, N-[3-(5,6-Dimethoxy-3-methyl-1,4-benzoquinon-2-yl)methyl-2-benzyloxybenzoyl]morpholine]
7 | COC1=C(OC)C(=O)C(Cc2ccc(O)c(C(=O)Nc3ccc(OC)cc3)c2)=C(C)C1=O [Example 76, N-[5-(5,6-Dimethoxy-3-methyl-1,4-benzoquinon-2-yl)methyl-2-hydroxybenzoyl]-4-methoxyaniline]
35 | COC1=C(OC)C(=O)C(Cc2cccc(C(=O)N3CCCCC3)c2O)=C(C)C1=O [Example 77, N-[3-(5,6-Dimethoxy-3-methyl-1,4-benzoquinon-2-yl)methyl-2-hydroxybenzoyl]piperidine]
57 | COC1=C(OC)C(=O)C(Cc2cccc(C(=O)N3CCOCC3)c2O)=C(C)C1=O [Example 78, N-[3-(5,6-Dimethoxy-3-methyl-1,4-benzoquinon-2-yl)methyl-2-hydroxybenzoyl]morpholine]
27 | COC1=C(OC)C(=O)C(Cc2cccc(C(=O)Nc3ccc(OC)cc3)c2O)=C(C)C1=O [Example 79, N-[3-(5,6-Dimethoxy-3-methyl-1,4-benzoquinon-2-yl)methyl-2-hydroxybenzoyl]-4-methoxyaniline]
82 | COC1=C(OC)C(=O)C(Cc2ccc(OC)c(C(=O)N3CCCCC3)c2)=C(C)C1=O [Example 80, N-[5-(5,6-Dimethoxy-3-methyl-1,4-benzoquinon-2-yl)methyl-2-methoxybenzoyl]piperidine]
84 | COC1=C(OC)C(=O)C(Cc2ccc(OC)c(C(=O)Nc3ccc(OC)cc3)c2)=C(C)C1=O [Example 82, N-[5-(5,6-Dimethoxy-3-methyl-1,4-benzoquinon-2-yl)methyl-2-methoxybenzoyl]-4-methoxyaniline]
63 | COC1=C(OC)C(=O)C(Cc2ccc(OC(C)C)c(C(=O)N3CCOCC3)c2)=C(C)C1=O [Example 84, N-[5-(5,6-Dimethoxy-3-methyl-1,4-benzoquinon-2-yl)methyl-2-isopropoxybenzoyl]morpholine]
65 | COC1=C(OC)C(=O)C(Cc2ccc(OC(C)C)c(C(=O)Nc3ccc(OC)cc3)c2)=C(C)C1=O [Example 85, N-[5-(5,6-Dimethoxy-3-methyl-1,4-benzoquinon-2-yl)methyl-2-isopropoxybenzoyl]-4-methoxyaniline]
27 | COC1=C(OC)C(=O)C(Cc2ccc(Oc3ccccc3)c(C(=O)N3CCCCC3)c2)=C(C)C1=O [Example 86, N-[5-(5,6-Dimethoxy-3-methyl-1,4-benzoquinon-2-yl)methyl-2-phenoxybenzoyl]piperidine]
19 | COC1=C(OC)C(=O)C(Cc2ccc(Oc3ccccc3)c(C(=O)N3CCOCC3)c2)=C(C)C1=O [Example 87, N-[5-(5,6-Dimethoxy-3-methyl-1,4-benzoquinon-2-yl)methyl-2-phenoxybenzoyl]morpholine]
45 | COC1=C(OC)C(=O)C(Cc2ccc(Oc3cccc(OC)c3)c(C(=O)N3CCCCC3)c2)=C(C)C1=O [Example 89, N-[5-(5,6-Dimethoxy-3-methyl-1,4-benzoquinon-2-yl)methyl-2-(3-methoxyphenoxy)benzoyl]piperidine]
49 | COC1=C(OC)C(=O)C(Cc2ccc(OCc3cccnc3)c(C(=O)N3CCCCC3)c2)=C(C)C1=O [Example 92, N-[5-(5,6-Dimethoxy-3-methyl-1,4-benzoquinon-2-yl)methyl-2-(3-pyridylmethyloxy)benzoyl]piperidine]
45 | COC1=C(OC)C(=O)C(Cc2ccc(OCc3cccnc3)c(C(=O)Nc3ccc(OC)cc3)c2)=C(C)C1=O [Example 94, N-[5-(5,6-Dimethoxy-3-methyl-1,4-benzoquinon-2-yl)methyl-2-(3-pyridylmethyloxy)benzoyl]-4-methoxyaniline]
35 | COC1=C(OC)C(=O)C(Cc2ccc(OCc3ccncc3)c(C(=O)N3CCCCC3)c2)=C(C)C1=O [Example 95, N-[5-(5,6-Dimethoxy-3-methyl-1,4-benzoquinon-2-yl)methyl-2-(4-pyridylmethyloxy)benzoyl]piperidine]
48 | COC1=C(OC)C(=O)C(Cc2ccc(O)c(C(=O)Nc3cc(OC)c(OC)c(OC)c3)c2)=C(C)C1=O [Example 114, N-[5-(5,6-Dimethoxy-3-methyl-1,4-benzoquinon-2-yl)methyl-2-hydroxybenzoyl]-3,4,5-trimethoxyaniline]
36 | COC1=C(OC)C(=O)C(Cc2ccc(O)c(C(=O)Nc3ccc(OC)c(OC)c3)c2)=C(C)C1=O [Example 115, N-[5-(5,6-Dimethoxy-3-methyl-1,4-benzoquinon-2-yl)methyl-2-hydroxybenzoyl]-3,4-dimethoxyaniline]
17 | COC1=C(OC)C(=O)C(Cc2ccc(O)c(C(=O)Nc3ccc(C(C)=O)cc3)c2)=C(C)C1=O [Example 116, N-[5-(5,6-Dimethoxy-3-methyl-1,4-benzoquinon-2-yl)methyl-2-hydroxybenzoyl]-4-acetylaniline]

Structure (SMILES) | IC50 [µM]
COC1=C(OC)C(=O)C(Cc2ccc(OC(C)=O)c(C(=O)Nc3ccc(OC)cc3)c2)=C(C)C1=O [Example 70, N-[5-(5,6-Dimethoxy-3-methyl-1,4-benzoquinon-2-yl)methyl-2-acetoxybenzoyl]-4-methoxyaniline] | 15
COC1=C(OC)C(=O)C(Cc2cccc(C(=O)N3CCCCC3)c2OC(C)=O)=C(C)C1=O [Example 71, N-[3-(5,6-Dimethoxy-3-methyl-1,4-benzoquinon-2-yl)methyl-2-acetoxybenzoyl]piperidine] | 36
COC1=C(OC)C(=O)C(Cc2cccc(C(=O)N3CCOCC3)c2OC(C)=O)=C(C)C1=O [Example 72, N-[3-(5,6-Dimethoxy-3-methyl-1,4-benzoquinon-2-yl)methyl-2-acetoxybenzoyl]morpholine] | 43
COC1=C(OC)C(=O)C(Cc2cccc(C(=O)Nc3ccc(OC)cc3)c2OC(C)=O)=C(C)C1=O [Example 73, N-[3-(5,6-Dimethoxy-3-methyl-1,4-benzoquinon-2-yl)methyl-2-acetoxybenzoyl]-4-methoxyaniline] | 31
COC1=C(OC)C(=O)C(Cc2ccc(OCC(=O)OC(C)(C)C)c(C(=O)N3CCCCC3)c2)=C(C)C1=O [Example 104, N-[5-(5,6-Dimethoxy-3-methyl-1,4-benzoquinon-2-yl)methyl-2-(tert-butoxycarbonylmethyloxy)benzoyl]piperidine] | 29
COC1=C(OC)C(=O)C(Cc2ccc(OC(C)=O)c(C(=O)Nc3cc(OC)c(OC)c(OC)c3)c2)=C(C)C1=O [Example 106, N-[5-(5,6-Dimethoxy-3-methyl-1,4-benzoquinon-2-yl)methyl-2-acetoxybenzoyl]-3,4,5-trimethoxyaniline] | 70
COC1=C(OC)C(=O)C(Cc2ccc(OC(C)=O)c(C(=O)Nc3ccc(OC)c(OC)c3)c2)=C(C)C1=O [Example 107, N-[5-(5,6-Dimethoxy-3-methyl-1,4-benzoquinon-2-yl)methyl-2-acetoxybenzoyl]-3,4-dimethoxyaniline] | 84
COC1=C(OC)C(=O)C(Cc2ccc(OC(C)=O)c(C(=O)Nc3ccc(C(C)=O)cc3)c2)=C(C)C1=O [Example 108, N-[5-(5,6-Dimethoxy-3-methyl-1,4-benzoquinon-2-yl)methyl-2-acetoxybenzoyl]-4-acetylaniline] | 67
COC1=C(OC)C(=O)C(Cc2ccc(OC(C)=O)c(C(=O)Nc3ccc(Cl)cc3)c2)=C(C)C1=O [Example 109, N-[5-(5,6-Dimethoxy-3-methyl-1,4-benzoquinon-2-yl)methyl-2-acetoxybenzoyl]-4-chloroaniline] | 46
COC1=C(OC)C(=O)C(Cc2ccc(OC(C)=O)c(C(=O)Nc3ccc(N4CCOCC4)cc3)c2)=C(C)C1=O [Example 110, N-[5-(5,6-Dimethoxy-3-methyl-1,4-benzoquinon-2-yl)methyl-2-acetoxybenzoyl]-4-morpholinoaniline] | 34
COC1=C(OC)C(=O)C(Cc2ccc(OC(C)=O)c(C(=O)Nc3ccc(C#N)cc3)c2)=C(C)C1=O [Example 111, N-[5-(5,6-Dimethoxy-3-methyl-1,4-benzoquinon-2-yl)methyl-2-acetoxybenzoyl]-4-cyanoaniline] | 25
